Experimental data from US20140193827A1 (TEVA PHARMACEUTICAL INDUSTRIES, LTD., priority 2013, published 2014).

What was measured:
[1] = system: GA-primed murine splenocytes; assay: Microarray gene expression profiling of GA-primed splenocytes reactivated ex vivo (t-test / 1-way ANOVA vs. Medium or GA-RS); type: cell-based, mouse
From the text: All experimental procedures conformed to accepted ethical standards for use of animals in research and were in accordance with Committee for the Care and Use of Experimental Animals guidelines and approved by the Teva Institutional Animal Care and Use Committee. For these experiments, we purchased 8- to 12-week old female (Balb/c×SJL)F1 mice (Harlan, Israel). […] Single cell suspension was prepared. […] Splenocytes (125 μL 10×10^6 SPL cell/mL suspension) were added to the activator solutions and incubated for 24 hours at 37° C. Then, cells were washed, diluted with RNA stabilization solution (RNAlater® solution, Applied Biosystems), and stored at 4° C. […] RNA quality was assessed by the absorbance ratio at 260/280 on and gel electrophoresis (Experion™, Bio-Rad, Hercules, Calif.). […] Microarray hybridization, array scanning, and initial preprocessing were performed by BioRap (Technion, Haifa, Israel). […] The subsequent bioinformatics analyses were conducted in the Bioinformatics Core Facility of the National Institute for Biotechnology in the Negev, Ltd. (NIBN, Beer-Sheva, Israel). Summarization of bead-level data to gene-level signals was performed using the R package “beadarray” (45) after removal of outliers greater than 3 median absolute deviations (MADs). Between-sample quantile normalization was performed using Partek Genomics Suite (Partek, Inc., St. Louis, Missouri), followed by correction of experimental batch effects (i.e., related to differences in dates of RNA extraction and array processing) using the Partek Batch Remover™ tool. […] Fold change values were presented in linear scale. […] RNA was extracted and full gene expression analysis was preformed.

[2] = system: GA-primed murine splenocytes; assay: Functional gene expression analysis (Ingenuity Pathways Analysis: biological functions, canonical pathways); set-up: species or system mouse; conditions: vs. Medium
Method: To identify the leading biological mechanisms associated with genes induced in splenocytes by glatiramoids, gene functional annotation, enrichment, and pathway analyses were performed by Ingenuity Pathways Analysis (IPA) Suite (www.ingenuity.com). The program integrates data from various experimental platforms and primary literature sources to provide insight into molecular interactions, cellular phenotypes, and disease processes, and then predicts downstream biological effects of gene transcription changes. IPA web software was also used to reconstruct regulatory genes and transcriptional factors functional networks. A significance score (using the right-tailed Fisher's exact test and expressed as a p value) for each process is calculated as the number of gene transcripts that participate in a network or pathway relative to the total number of these genes in all functional/pathway annotations stored in the IPA database. All p values were applied for multiple testing corrections using Benjamini-Hochberg FDR method with a cut off at p =0.05.

[3] = system: GA-primed murine splenocytes; assay: Differentially expressed genes GA vs PG by multiple parametric tests (ANOVA, LIMMA with background subtraction, comparative marker selection SNR and t-test); type: cell-based, mouse
Method: The experimental design, data collection, and pre-processing steps have been previously described. […] After 3 days the mice were sacrificed, their splenocytes were isolated, and these splenocytes were mixed with activator solutions for 24 hours. […] Then the RNA was extracted and gene expression characterized by microarray using an Illumine WG-6_V2 chip. Illumina's BeadStudio software was utilized for image processing, quantification of signal intensity per bead, and background signal correction. The microarray data have been deposited in the Gene Expression Omnibus, under accession number GSE40566.
We then corrected for batch variation with ComBat (30) as implemented in the SVA package of R (62). Each microarray's chip designation was supplied a batch label; there were 18 batches in all. The labels for the treatments (i.e. drug product, reference standard . . . ) were added as covariates.
First, we computed the statistical significance of differential expression between treatments using the Analysis of Variance (ANOVA) method for each probe (65), adjusting for multiple hypothesis testing using the Benjamini-Hochberg False Discovery Rate (FDR) correction (66). […] The coefficients for the linear model were tested for significance using a modified t-test (taking into account standard deviation) and the p-values for each probe were adjusted using FDR. […] We applied two separate techniques within this framework; a traditional T-test and a Signal-to-Noise Ratio test (SNR). For each of these two tests, we adjusted the nominal p-values via FDR. For all four tests described, we used an adjusted threshold that was less than or equal to 0.05.

[4] = system: GA-primed murine splenocytes; assay: Non-parametric Wilcoxon rank sum test GA vs PG; type: cell-based, mouse
From the text: Nominal p-values were FDR adjusted and only probes that were less than or equal to 0.05 were considered.

## glatiramer acetate [GA]
[1]; FDR-adjusted p value <0.05, fold change of 1.3 or more
  genes up- or down-regulated compared to medium: 1474 genes
[1]; vs. Medium
  FOXP3 expression: over-expressed
  Fold Change CD40: 1.533
  Fold Change CD86: 1.365
  Fold Change FOXP3: 1.406
  Fold Change GATA3: 1.877
  Fold Change HLA-DMA: 1.534
  Fold Change HLA-DMB: 1.398
  Fold Change ICOS: 2.164
  Fold Change IFNG: 16.847
  Fold Change IFNGR2: −1.333
  Fold Change IL2: 2.074
  Fold Change IL2RA: 2.457
  Fold Change IL2RG: −1.386
  Fold Change IL4: 4.428
  Fold Change IL4R: 1.578
  Fold Change IL6R: −1.545
  Fold Change IL10RB: −1.323
  Fold Change IL12RB1: 2.270
  Fold Change IL13: 1.330
  Fold Change IL17A: 1.451
  Fold Change IL17F: 2.365
  Fold Change IL18: −1.383
  Fold Change IL18R1: −1.726
  Fold Change TBX21: 2.654
  Fold Change TGFBR2: −1.436
  Fold Change TNF: 1.475
[2]
  Response, Activation of T lymphocytes: Upregulated
  Response, Activation of antigen presenting cells: Upregulated
  Response, Activation of lymphocytes: Upregulated
  Response, Activation of mononuclear leukocytes: Upregulated
  Response, Activation of phagocytes: Upregulated
  Response, Development of hematopoietic progenitor cells: Down-regulated
  Response, Differentiation of effector T lymphocytes: Upregulated
  Response, Differentiation of naive lymphocytes: No change
  Response, Expansion of lymphocytes: No change
  Response, Expansion of mononuclear leukocytes: No change
  Response, Immune response of antigen presenting cells: Upregulated
  Response, Proliferation of B lymphocytes: Upregulated
  Response, Proliferation of T lymphocytes: No change
  Response, Proliferation of hematopoietic cell lines: Upregulated
  Response, Proliferation of immune cells: Upregulated
  Response, Proliferation of lymphocytes: Upregulated
  Response, Quantity of cytotoxic T cells: Down-regulated
  Response, Stimulation of antigen presenting cells: Upregulated
  Response, Stimulation of macrophages: Upregulated
  Response, Suppression of T lymphocytes: Upregulated
[3]
  FOXP3 expression, GA vs PG: significantly higher expression
  GPR83 expression, GA vs PG: significantly higher levels of expression
[3]; probes ranked #1 and #3 by fold change
  IFNG expression, GA compared to PG: upregulated dramatically
[4]
  CD40 expression, GA vs PG: significantly lower expression
